The source of these data is patent US6338963B1, “Use of carbon monoxide dependent guanylyl cyclase modifiers to stimulate neuritogenesis” (NeoTherapeutics, Inc., priority 1994, dated 2002).

Assay [1] deals with S100β protein. Put plainly: S100β protein release from rat cultured astrocytes (ELISA). It counts as cell-based. Conditions: for release of S100β protein from astrocytes: exposure for 24 hours. The method, then:
The S100β protein was measured by using an ELISA as described in A. Aurell et al., “The S-100 Protein in Cerebrospinal Fluid: A Simple ELISA Method,” J.Neurol. Sci. 89: 157-164 (1989).
(§1) The NGF and S100β protein were measured by removing the cultured medium for the ELISA assays at each indicated time point.
Background: An ELISA detects its analyte on a solid surface through an enzyme-linked reagent.

The test system of the next assay is acetylcholine receptors. It counts as binding, mouse.
In another assay the test system is FGF-2 mRNA. Put plainly: Northern/slot blot of neurotrophin mRNA from astrocytes: FGF-2. It counts as cell-based, NIH Swiss mice. More on the design: key to FGF-2 mRNA: The conditions which produced a detectable amount of each of the neurotrophin mRNAs are indicated by a “+”; a “++” indicating that at least twice the detectable amount was present; Those blots which were negative are indicated by a “−”. As to conditions: for FGF-2 mRNA: 24 hours. The protocol: Induction of neurotrophin mRNA was determined by northern blot analysis of astrocytes cultured with AIT-082, NGF, or both. The cells were harvested and RNA extracted at 24 hours after treatment.
More particularly, astrocytes from the cerebral cortex of NIH Swiss mice (Harlan) were isolated. Briefly, newborn pups (0-24 hours) were decapitated. Their brains were removed under aseptic conditions and were placed in modified Dulbecco's medium (DMEM) containing 20% heat-inactivated horse serum (Hyclone) (“complete medium”). The neopallium was then dissected from each cerebral hemisphere and minced into 1 mm cubes.
The astrocytes were then isolated by mechanical dissociation. The cubes were vortexed at maximum speed for one minute. The cell suspension was then passed first through 75 mm Nitex then through 10 mm Nitex. The resulting cell suspension was diluted in complete medium to a final concentration of one brain per 10 ml of complete medium. Ten milliliters of the diluted cell suspension was added to each 100 mm Falcon tissue culture plate (Fisher). After 3 days the medium was replaced with 10 ml fresh complete medium and subsequently was replaced twice weekly with DMEM containing 10% heat inactivated horse serum (“growth medium”). After two weeks in culture the astrocytes formed a confluent monolayer.
For RNA extraction, astrocytes were trypsinized. The astrocytes were then replated onto 100 mm PORN coated plates at a cell density of 10^6 cells per plate (10 ml growth medium). After 2 hrs PBS, guanosine (Guo), or GTP at 10 mM were added to the appropriate plates. Total RNA was harvested from 1.5×10^7 cells for each treatment, 4 and 24 hrs after treatment using TRIzol reagent and supplier protocol (GIBCO BRL/Life Technologies, Inc.). For slot blots, total RNA was bound to Hybond-N filters (Amersham/United States Biochemicals) as described in Transfer and Immobilization of Nucleic Acids and Proteins to S & S Solid Supports (S and S Protocols: Schleicher & Schuell, New Hampshire, USA). Northern blots were also performed using […] total RNA from each sample. These were electrophoresed in 1% agarose gels containing formaldehyde and blotted onto Hybond-N filters according to S and S protocols.
The blots were probed with ^32P-labeled cDNA (NGF, NT-3 and BDNF probes) or oligonucleotide probe (FGF-2) by hybridization in Piperazine-N,N′-bis-(2-ethanesulfonic acid) (PIPES) buffer (50 mM PIPES, pH 6.8; 50 mM NaH2PO4; 0.1 M NaCl; 5% SDS and 1 mM EDTA) overnight at 50° C. […] Various concentrations ([…] of total RNA), as determined by spectrophotometry, of each sample were blotted and probed so that quantification could be done after insuring a linear film response. Quantification was performed using MCID Image Analysis (St. Catherine's, Ontario, Canada). […]

The test system of assay [2] is NGF. Description: NGF release from rat cultured astrocytes (ELISA). The class given is cell-based. Conditions: for release of NGF from astrocytes: exposure for 24 hours. The protocol: The dose response for AIT-082 and guanosine on nerve growth factor and S100β protein release from rat culture astrocytes is shown in FIG. 30. NGF was assayed by a double-site ELISA, using a monoclonal anti-NGF antibody, coupled or not to β-galactosidase according to the method of I. D. Laviada et al., “Phosphatidylcholine-Phospholipase C Mediates the Induction of Nerve Growth Factor in Cultured Glial Cells,” FEBS Lett. 364: 301-304 (1995).
as §1
(§2) NGF and TGFβ2 levels were assayed in the culture medium of the astrocytes by specific ELISA assays using kits from Roche (Germany) and Promega (USA) respectively. NGF basal levels were 56.3±3.2 pg/ml. TGFβ2 levels were 9.1±0.06 pg/ml.
(§3) In FIG. 61, the dose-response curves of NGF and TGFβ2 release from rat cultured astrocytes as the result of exposure to AIT-082 are shown.

For a further assay, the system named is TGFβ2. Description: TGFβ2 release from rat cultured astrocytes (ELISA). It counts as cell-based. The method, then: as §2, §3
Assay [3] deals with NGF. Put plainly: Summary of effects on growth factor mRNA and protein (Table R): NGF. Conditions: Aged Brain. Further details: key: ± = mRNA; + = protein; nt = not tested. The source says:
The constellation of effects of AIT-082 on production of mRNA encoding growth factors and on production of growth factor proteins is shown in Table R. The results summarized in […] show both transcriptional and translational effects on growth factors that are in the categories of neurotrophins, pleiotrophins, members of the S100 family of EF hand calcium binding proteins, and members of the TGFβ superfamily. As indicated, effects have been shown at both the mRNA (transcriptional) and protein (translational) levels.

Another assay deals with C57BL/6 mice. Put plainly: Ethanol-induced working memory deficit (win-shift). It counts as in vivo. As to conditions: Ethanol 0.5 gm/kg i.p. + AIT-082 30 mg/kg i.p. 1 hour prior. The method, then: Six month old male C57BL/6 mice were evaluated in the win-shift model in combination with treatment with ethanol, a non-specific memory suppressant, and AIT-082. Subjects were treated with saline (control) or AIT-082 (30 mg/kg. i.p.) 1 hour prior to testing. Ethanol was administered at a dose of 0.5 gm/kg i.p. ten minutes prior to testing.

In assay [4] the test system is S100β protein. Put plainly: Western blot of astrocyte cytosolic proteins: S100β. As to conditions: 100 μM AIT-082. The class given is cell-based, rat.

Regarding `O=C(CCn1cnc2c(=O)[nH]cnc21)Nc1ccc(C(=O)O)cc1` [AIT-082, N-4-carboxyphenyl-3-(6-oxohydropurin-9-yl)propanamide], the “time of peak release of S100β protein” value with S100β protein [1] (AIT-082 100 μM) is reported as “peaked within three hours”. Also, the “release of S100β protein from astrocytes” value in the assay with S100β protein [1] is listed as “dose-dependent increase”. Also, in the assay with acetylcholine receptors, the “interference with the binding of QNB” value is given as “no effect”. Besides, the “FGF-2 mRNA” value in the assay on FGF-2 mRNA (AIT-082 100 mM) is listed as “++”; in the assay on FGF-2 mRNA (AIT-082 + NGF (40 ng/ml)), “+”. In the assay on NGF [2] (AIT-082 100 μM), the “time after exposure at which release of NGF was enhanced” value amounted to 12 h. Further, the “time of maximum release of NGF” value in the assay with NGF [2] (AIT-082 100 μM) is 24 h. Moreover, in the assay on NGF [2], the “release of NGF from astrocytes” value is listed as “dose-dependent increase”. The “increase of NGF production as compared to a control” value in the assay with NGF [2] (rat cultured astrocytes) is reported as “about 2.5 fold”. In the assay with TGFβ2 (rat cultured astrocytes), the “increase of TGFβ2 production as compared to a control” value was 1.7 fold. Besides, in the assay on NGF [3], the “NGF, effect on mRNA/protein production” value is given as “±”. In the assay on C57BL/6 mice, the “Correct trials (mean number of correct responses per 10 trials ± S.E.)” value is reported as 7.89 ± 0.54. The “ex novo synthesis of S100β protein” value in the assay on S100β protein [4] is given as “did not stimulate ex novo synthesis of S100β protein”.

With `Nc1nc2c(ncn2[C@@H]2O[C@H](CO)[C@@H](O)[C@H]2O)c(=O)[nH]1` [guanosine], in the assay with S100β protein [1], the “release of S100β protein from astrocytes” value is listed as “dose-dependent increase”. Also, the “FGF-2 mRNA in astrocytes” value in the assay with FGF-2 mRNA (guanosine, 24 hours after addition) was “increased”. In the assay with NGF [2], the “release of NGF from astrocytes” value is “dose-dependent increase”. In the assay on TGFβ2 (exposure for 24 hours), the “release of TGFβ2 from astrocytes” value was “dose-dependent increase”.
